One data set relates to peritoneal macrophages. As to the kind of experiment: Apoptosis and necrosis of thioglycollate-recruited peritoneal macrophages in vivo (annexin V, propidium iodide). The conditions noted are these: intraperitoneal injection, after 4 hours. As for the experimental part:
(§1) (FIG. 6A, FIG. 6B) Macrophages recruited to the peritoneal cavity by thioglycollate where challenged by intraperitoneal injections of either cM7, scM7 or the blocking anti-Mac-1 antibody M1/70. […] (FIG. 4C, FIG. 4D) In vitro cultivated human umbilical vein endothelial cells (HUVECs) were incubated with cM7, scM7 or a combination of CD40L or a blocking anti-CD40 antibody. […] Data are presented as mean±SEM of at least 3 independent experiments.

In data set [1] the test system is human umbilical vein endothelial cells (HUVECs). Put plainly: Cytotoxicity and apoptosis in cultivated HUVECs (caspase 3/7 activity, LDH release). The data set is classed as cell-based. As for the experimental part:
as §1
On the technique in general: LDH leaks from cells whose membrane has failed.

Another data set concerns TNFα-challenged mice. The following applies: mouse, in vivo. The protocol:
Mice received an intraperitoneal injection 5 hours before surgery of 200 ng of murine TNFα (R&D systems) and 100 μg of peptides dissolved in sterile saline 5 hours before surgery. Mice were anesthetized with an intraperitoneal injection of ketamine hydrochloride (Essex) and xylazin (Bayer) at a dose at 187.5 mg/kg of body weight and 62.5 mg/kg of body weight, respectively. The cremaster muscle was exteriorized as described previously (Iezzi et al., PNAS (2009), pp 876-881). For some experiments a catheter was placed in the jugular vein and peptides were administered during microscopy. The cremaster was superfused with thermo-controlled (36° C.) saline. Mice were placed on a heating pad to maintain body temperature. Videos were taken with an intravital microscope (AxioScope Vario, Carl Zeiss) fitted with a saline immersion objective (WPlan-APOCHROMAT 20x/1,0DIC IR, Carl Zeiss) a high sensitivity camera system (AxioCam MRm, Carl Zeiss) for 30 seconds each. Rolling leukocyte flux was defined as the number of leukocytes moving at a velocity less than erythrocytes. Leukocyte rolling velocity was measured by the average time required for leukocytes to roll over a defined length of the venule at each time point. Adherent leukocytes were defined as cells that remained stationary for at least 30 s. Rolling leukocyte flux, adhering flux were quantified by a blinded investigator.

For the next data set, the system named is LDLr−/− mice. Put plainly: Atherogenesis study, high-cholesterol diet 20 weeks. Type of data set: in vivo. As for the experimental part:
Atherogenesis study. Eight-week-old male LDL-receptor-deficient (LDLr^−/−) mice (Jackson Laboratories) consuming a high-cholesterol diet (HCD) were treated with intraperitoneal injections of the peptides cM7, scM7 (Peptide Specialty Laboratory) in a dose of 100 μg, or sterile saline three times a week. After 20 weeks blood samples were taken for flow cytometric analysis of leukocyte subpopulations, cholesterol and triglyceride plasma levels, as well as for the determination of plasma cytokines and chemokines. Blood pressure was determined by a non-invasive blood pressure measurement (NIBP, Harvard Apparatus). Mice were euthanized, and aortic roots and arches were frozen in OCT (OCT compound; Tissue-Tek). Thoracic and abdominal aortas were fixed in 10% buffered formalin. Serial cryostat sections (6 μm) of mouse aortic tissues were fixed in acetone, and air-dried. Nonspecific binding was blocked with 5% species-appropriate normal serum (Vector Laboratories). Sections were then incubated with primary antibodies diluted in phosphate-buffered saline, supplemented with 5% species-appropriate normal serum. Incubation with secondary antibodies was followed by avidin-biotin complex (ABC, Vector Laboratories). Antibody binding was visualized with 3-amino-9-ethylcarbazole (AEC; Dako), followed by counterstaining with Gill's hematoxylin solution (Sigma-Aldrich). Control stainings included staining with the respective IgG isotypes (Pharmingen, Dako). Antibodies used were rat anti-mouse Mac-3 for macrophage specific staining, anti α-actin for smooth muscle cell specific staining (Dako). For the visualization of Type I Collagen, Formalin-fixed frozen sections were incubated for 4 hours in a freshly prepared 0.1% solution of picrosirius red (Polysciences) in saturated aqueous picric acid. After rinsing in 0.01 N HCl and distilled water, sections were dehydrated in 70% ethanol and mounted in Permount (Vector Laboratories). Picrosirius red staining was analyzed by polarization microscopy. As the color of collagen fibers assessed in the picrosirius red staining depends on the thickness of collagen fibers and changes from green (thin fibers) to yellow, orange, and red (thick fibers), color distribution in stained collagen sections was quantified. Deposition of lipids was determined by oil red O staining after formalin fixation in aortic sections or in en face preparations of the abdominal aorta. To quantify the composition of the aortic lesions, sections of the aortic tissue were analyzed microscopically in all mice. Within the aortic root, lesion areas were analyzed in cross-sections obtained at the level of all 3 leaflets of the aortic valve, immediately proximal to the right coronary artery ostium. The total aortic wall area, lesion area in the aortic root, and the percentage of area stained for macrophages, lipids, SMCs, or collagen were determined via computer-assisted image quantification (ImagePro, Media Cybernetics).

Data set [2] deals with C57BL/6J mice. Put plainly: In vivo thrombosis model (ferrichloride injury of mesenteric arteriole). As for the experimental part: (§2) Potential side effects were checked in an in vivo thrombosis model. 3-4 weeks old C57BL/6J mice received an intraperitoneal injection of either sterile saline (100 μl), the peptides cM7, scM7, or the indicated antibodies. A mesenteric arteriole was chosen and injured with ferrichloride. Platelets were stained by retroorbital injection of rhodamine […] and visualized through an intravital microscope (AxioScope Vario, Carl Zeiss). Vessel occlusion time and thrombus embolization rate was analyzed. Tail bleeding time was determined as previously reported (Andre et al., Loc. Cit.).

Data set [3] deals with C57BL/6J mice. As to the kind of experiment: Tail bleeding time. The conditions noted are these: mouse, in vivo. As for the experimental part: as §2
For data set [4], the system named is CD40L-transfected murine fibroblasts. As to the kind of experiment: Flow cytometry: binding of FITC-cM7 to CD40L- or mock-transfected murine fibroblasts. The data set is classed as cell-based. The protocol: Flow cytometric analysis, platelet activation assays, and quantification of leukocyte-platelet aggregates, were performed as previously described (Zirlik et al., 2007). Binding of cM7 to CD40L-expressing murine fibroblasts was determined by quantification of FITC-coupled cM7. Binding of CD40L to Mac-1 expressing CHO-cells or human leukocytes was performed by incubation with CD40L (10 μg/ml) and subsequent detection with anti-PentaHis antibody (Qiagen).
Flow cytometric analyses, as well as platelet activation assays and quantification of leukocyte-platelet aggregates were performed as previously described (Quezada et al., Ann. Rev. Immunol. (2004), pp 307-328). Briefly, murine blood samples were taken by intracardiac puncture. Red cells were lyzed in 155 mM NH4Cl, 5.7 mM K2HPO4, 0.1 mM EDTA, pH 7.3. […] Antibodies for epitope specific fluorescence-activated cell sorting (FACS Calibur, BD) included anti-CD11b, anti-CD115, anti-Gr-1, anti-CD4, anti-CD8, anti-CD20, anti-CD41, anti-CD62P, anti-CD54, anti-CD102, and anti-CD106 (all from Ebioscience). Binding of cM7 to CD40L- or mock-transfected murine fibroblasts was determined by incubation of FITC-cM7 at the indicated concentrations with cells for 30 min at 37° C. and subsequent quantification of the fluorescence in the FL-1 channel. […]
A general note: Flow cytometry measures light scatter and fluorescence of single cells or particles in a stream.

The target in data set [5] is T1, CD40L binding to Mac-1 I-domain (Homo sapiens, UniProt P29965).
T1 construct: inserting the coding DNA for amino acids E^108 to L^261 in pHOG-21; His (N); trimerization domain (N); made in house
T1 sequence (P29965 108-261): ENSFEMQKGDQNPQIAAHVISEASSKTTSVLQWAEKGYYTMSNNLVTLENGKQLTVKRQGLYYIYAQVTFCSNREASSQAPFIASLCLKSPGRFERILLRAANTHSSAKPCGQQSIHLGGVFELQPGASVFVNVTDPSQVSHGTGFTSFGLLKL
As to the kind of experiment: Solid phase binding assay: blocking of CD40L binding to immobilized Mac-1 I-domain by peptides. The following applies: peptides 50 μM. The protocol: Solid phase binding assay. Recombinant CD40L was incubated with immobilized Mac-1 I-domain in the presence or absence of blocking peptides. Binding of sCD40L was detected by addition of anti-cmyc-HRP (Invitrogen), TMB-substrate (Pierce), and colorimetric reaction. Alternatively, CD40L (Provitro) was immobilized, and binding of the recombinant Mac-1 I-domain was quantified by addition of anti-His-Biotin (Qiagen), and HRP-coupled streptavidin (Pierce). For the binding to immobilized peptides, CD40L was biotinylated with the Micro Biotinylation Kit (Sigma). A mixture of equal molarities of all peptides served as the positive control in this assay.
The recombinant Mac-1 I-domain was immobilized in 96-well plates (Nunc) in PBS at 4° C. overnight. After blocking in 2% BSA/PBS and subsequent washing with PBS, recombinant CD40L was added to the wells in the indicated concentrations and incubated for 2 hours at 37° C. Effect of the peptides M1-M8 was assessed by incubating CD40L (10 μg/ml) in the presence of peptides (50 μM). After removing of unbound CD40L by washing with 0.1% Tween-20/PBS, anti-c-myc-HRP (Invitrogen) was added and incubated for 2 hours at room temperature. Binding was quantified by addition of TMB-substrate (Pierce), colorimetric reaction at 450 nm. Alternatively, CD40L without a His-tag (Provitro) was immobilized and blocked as described above. Binding of the recombinant Mac-1 I-domain was quantified by addition of anti-His-Biotin monoclonal antibody (Qiagen), HRP-coupled streptavidin (Pierce) and colorimetric reaction at 450 nm. For the specific binding of the Mac-1 I-domain BSA-coated wells were subtracted from the CD40L-coated. Kd was estimated using a one-site binding hyperbola nonlinear regression model with the Software Prism (Graphpad). For quantification of the binding of CD40L to peptides, peptides were immobilized in 96-well plates overnight at 4° C. in 50 mM sodium carbonate, pH 10.6. CD40L was biotinylated using the Micro-Biotinylation-Kit (Sigma) following the manufacturer's instructions and detected by HRP-coupled streptavidin (Pierce) and colorimetric reaction. A mixture of equal molarities of all peptides served as positive control. Absorbance on BSA-coated wells served as negative control and was subtracted.

Positions of bridges follow the written chain, without caps; N, C: chain ends. Residues, ends and D or L forms follow the SMILES beside them.

For the compound `CC(C)C[C@@H]1NC(=O)[C@H](CCC(N)=O)NC(=O)[C@H](CCC(=O)O)NC(=O)[C@@H](N)CSSC[C@@H](C(=O)O)NC(=O)[C@H](CC(C)C)NC(=O)[C@H]([C@@H](C)O)NC(=O)[C@H](CCCCN)NC(=O)[C@H](CO)NC(=O)[C@H](CCCCN)NC(=O)[C@H](CCCCN)NC1=O` [cM7] (H-CEQLKKSKTLC-OH; disulfide 1-11 (inferred); N-terminus and C-terminus assumed), the “apoptotic or necrotic cells in vivo (annexin V binding, propidium iodide loading)” value in the data set with peritoneal macrophages is recorded as “did not cause an increase of apoptotic or necrotic cells in vivo”. Moreover, the “apoptosis of endothelial cells, LDH-release” value in data set [1] (CD40L primed HUVECs) is recorded as “slightly increased in CD40L primed HUVECs”. Also, the “cellular cytotoxicity, caspase 3/7-activity” value in data set [1] (HUVECs, 24 hours) was “did not induce cellular cytotoxicity”. The compound also had a Heart rate in the data set on TNFα-challenged mice of 628 ± 63 bpm. Moreover, the Leukocytes in the data set with TNFα-challenged mice is reported as 11.9 ± 2.3 ×1000/μl; with LDLr−/− mice (AF), 4.54 ± 1.28 ×1000/μl; in the data set with LDLr−/− mice (BF), 11.2 ± 3.1 ×1000/μl. In addition, the Platelets is 552 ± 174 ×1000/μl with TNFα-challenged mice, 486 ± 198 ×1000/μl in the data set with LDLr−/− mice (AF) and 529 ± 53 ×1000/μl in the data set on LDLr−/− mice (BF). In addition, in the data set on TNFα-challenged mice, the Systolic blood pressure is 97.6 ± 6.5 mmHg. Besides, the Weight was determined as 35.7 ± 3.8 g in the data set on LDLr−/− mice (AF: after feeding) and 23.4 ± 2.3 g with LDLr−/− mice (BF: before feeding). In addition, in the data set on LDLr−/− mice (long-term treatment), the “immunologic characteristics (T cells, B cells, cytokines)” value was “Any changes in immunologic characteristics were not observed”. Also, the “effect on vessel occlusion time” value in the data set on C57BL/6J mice [2] (model of arterial thrombosis) is listed as “did not prolong vessel occlusion time”. Besides, the “effect on thromboembolization rate” value in the data set with C57BL/6J mice [2] (mouse, in vivo) is on record as “only caused a slight increase in thromboembolization rate”. Besides, the “effect on bleeding time” value with C57BL/6J mice [3] is listed as “did not affect bleeding time”.

Regarding “C-EQLKKSKTL-C (CEQLKKSKTLC; bridge N-C; also: cyclised through the flanking Cys, bond type not given here) [FITC-labeled cM7]”, in data set [4], the “binding to murine fibroblasts over-expressing CD40L” value was “concentration-dependently bound to murine fibroblasts over-expressing CD40L”. Further, the “binding to mock-transfected fibroblasts” value in data set [4] (control cells) is on record as “but not to respective mock-transfected control cells”.

Consider “DAFRSEKSRQELNTI (therapeutically active peptide) [Peptide M4]”, for which the “blocking of CD40L / Mac-1 I-domain binding” value in data set [5] is listed as “emerged as potential candidate inhibitors”.

For “FQVNNFEALKT (therapeutically active peptide) [Peptide M5]”, the “blocking of CD40L / Mac-1 I-domain binding” value in data set [5] is listed as “emerged as potential candidate inhibitors”.

With “KFGDPLGYEDVIPEADR (therapeutically active peptide) [Peptide M3]”, the “blocking of CD40L / Mac-1 I-domain binding” value in data set [5] is “emerged as potential candidate inhibitors”.

The values above are taken from patent publication US10994010B2, “Selective targeting of the CD40L/Mac-1 interaction by small peptide inhibitors and its use for the treatment of inflammation and atherogenesis” (Universitaetsklinikum Freiburg, priority 2010, dated 2021).
